According to PMC10649086 (Antimicrobial Agents and Chemotherapy, 2023):
Read-outs that look alike come from different tables or passages of the source.

Legend:
SARS-CoV-2 [1] = conditions: in vivo; cited from earlier work
chymotrypsin C = chymotrypsin C (Homo sapiens, UniProt Q99895); assay type: biochemical
SARS-CoV-2 [2] = conditions: human, in vivo; cited from earlier work
[3] = test system: SARS-CoV-2 BA.5.2.1 Omicron; experiment: microbe, parasite or virus in culture; assay type: cell-based
[4] = test system: SARS-CoV-2 BA.2.12.1 Omicron; experiment: microbe, parasite or virus in culture; assay type: cell-based
SARS-CoV-2 BA.2 Omicron = experiment: microbe, parasite or virus in culture; assay type: cell-based
cathepsin L = cathepsin L (Homo sapiens, UniProt P07711); experiment: biochemical
[5] = test system: SARS-CoV-2 Wuhan replicon (WT); experiment: microbe, parasite or virus in culture; assay type: cell-based
caspase 3 = caspase 3 (Homo sapiens, UniProt P42574); assay type: biochemical
CoV-OC43 M^pro = molecular target: T1, CoV-OC43 M^pro (Human coronavirus OC43, UniProt P0C6X6); experiment: biochemical
T1 construct: M^pro proteins from other human CoVs were also cloned, expressed in E. coli and purified by WuXi AppTec; host or cells: E. coli

SARS-CoV-2 WA1 NLuc = experiment: microbe, parasite or virus in culture; assay type: cell-based
thrombin = thrombin (Homo sapiens, UniProt P00734); assay type: biochemical
SARS-CoV-2 AY.20 Delta = experiment: microbe, parasite or virus in culture; assay type: cell-based
CoV-HKU1 M^pro = molecular target: T2, CoV-HKU1 M^pro (Human coronavirus HKU1, UniProt P0C6X2); experiment: biochemical
T2 construct: M^pro proteins from other human CoVs were also cloned, expressed in E. coli and purified by WuXi AppTec; host or cells: E. coli

SARS-CoV-2 Alpha = experiment: microbe, parasite or virus in culture; assay type: cell-based
cathepsin K = cathepsin K (Homo sapiens, UniProt P43235); experiment: biochemical
SARS-CoV-2 M^pro = molecular target: T3, SARS-CoV-2 M^pro (Severe acute respiratory syndrome coronavirus 2, UniProt P0DTC1); assay type: biochemical
T3 construct: composed of about 300 amino acids embedded in the polyproteins as the nsp5 domain; purchased BPS Biosciences

calpain1 = calpain1 (Homo sapiens, UniProt P07384); assay type: biochemical
CoV-OC43 = experiment: organism not typed; assay type: cell-based
dipeptidyl peptidase IV = dipeptidyl peptidase IV (Homo sapiens, UniProt P27487); assay type: biochemical
cathepsin S = cathepsin S (Homo sapiens, UniProt P25774); experiment: biochemical
SARS-CoV-2 Epsilon = experiment: microbe, parasite or virus in culture; assay type: cell-based
SARS-CoV-2 Delta = experiment: microbe, parasite or virus in culture; assay type: cell-based
caspase-2 = caspase-2 (Homo sapiens, UniProt P42575); assay type: biochemical
[6] = test system: SARS-CoV-2 BA.1.1 Omicron; experiment: microbe, parasite or virus in culture; assay type: cell-based
cathepsin B = cathepsin B (Homo sapiens, UniProt P07858); experiment: biochemical
CoV-NL63 M^pro = molecular target: T4, CoV-NL63 M^pro (Human coronavirus NL63, UniProt P0C6X5); experiment: biochemical
T4 construct: M^pro proteins from other human CoVs were also cloned, expressed in E. coli and purified by WuXi AppTec; host or cells: E. coli

SARS-CoV-2 Mu = experiment: microbe, parasite or virus in culture; assay type: cell-based
CoV-229E M^pro = molecular target: T5, CoV-229E M^pro (Human coronavirus 229E, UniProt P0C6X1); experiment: biochemical
T5 construct: M^pro proteins from other human CoVs were also cloned, expressed in E. coli and purified by WuXi AppTec; host or cells: E. coli

[7] = test system: SARS-CoV-2 BA.4.1 Omicron; experiment: microbe, parasite or virus in culture; assay type: cell-based
cathepsin D = cathepsin D (Homo sapiens, UniProt P07339); assay type: biochemical
CoV-229E = experiment: organism not typed; assay type: cell-based
elastase = assay type: biochemical, human
SARS-CoV2 WT M^pro = molecular target: T6, SARS-CoV2 WT M^pro (Severe acute respiratory syndrome coronavirus 2, UniProt P0DTC1); assay type: biochemical, SARS-CoV-2
T6 construct: codon-optimized cDNA of SARS-CoV-2 M^pro (QIZ13716.1_ORF1a) was cloned into the pET28a vector; host or cells: E. coli

[8] = Severe acute respiratory syndrome coronavirus 2, read-out: EC50 Mean (SD)
[9] = Severe acute respiratory syndrome coronavirus 2, read-out: EC90 Mean (SD)

Chain of chymotrypsin C (Q99895 30-268): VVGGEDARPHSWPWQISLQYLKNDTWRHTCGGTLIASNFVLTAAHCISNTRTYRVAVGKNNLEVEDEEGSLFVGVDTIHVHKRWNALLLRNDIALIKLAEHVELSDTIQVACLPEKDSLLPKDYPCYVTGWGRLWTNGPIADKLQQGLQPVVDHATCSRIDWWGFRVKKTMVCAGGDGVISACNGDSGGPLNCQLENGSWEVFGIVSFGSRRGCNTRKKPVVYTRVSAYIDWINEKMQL
Chain of cathepsin K (P43235 115-329): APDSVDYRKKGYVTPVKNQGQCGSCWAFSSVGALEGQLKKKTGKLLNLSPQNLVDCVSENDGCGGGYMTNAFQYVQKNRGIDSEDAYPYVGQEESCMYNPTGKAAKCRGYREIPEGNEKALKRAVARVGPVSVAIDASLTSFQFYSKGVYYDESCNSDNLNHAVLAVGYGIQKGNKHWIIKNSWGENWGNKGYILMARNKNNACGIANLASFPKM
T5 sequence (P0C6X1 2966-3267 limits assumed): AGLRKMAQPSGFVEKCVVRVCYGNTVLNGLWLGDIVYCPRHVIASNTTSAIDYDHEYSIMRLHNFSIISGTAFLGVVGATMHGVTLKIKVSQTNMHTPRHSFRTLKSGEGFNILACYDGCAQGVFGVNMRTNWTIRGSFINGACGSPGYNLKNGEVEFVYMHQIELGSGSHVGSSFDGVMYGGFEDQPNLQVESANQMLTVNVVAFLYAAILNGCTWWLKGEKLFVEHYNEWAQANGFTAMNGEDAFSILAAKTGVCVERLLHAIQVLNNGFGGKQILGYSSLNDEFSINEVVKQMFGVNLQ
T4 sequence (P0C6X5 2940-3242 limits assumed): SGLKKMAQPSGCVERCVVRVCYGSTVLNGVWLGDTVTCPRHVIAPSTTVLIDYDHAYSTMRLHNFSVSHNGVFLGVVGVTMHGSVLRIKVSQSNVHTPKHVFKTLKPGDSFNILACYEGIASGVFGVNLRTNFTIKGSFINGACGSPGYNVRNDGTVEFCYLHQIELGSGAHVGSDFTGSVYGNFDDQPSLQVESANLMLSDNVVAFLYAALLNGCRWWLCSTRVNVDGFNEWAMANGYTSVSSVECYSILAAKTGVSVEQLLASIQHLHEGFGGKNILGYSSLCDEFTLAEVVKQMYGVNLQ
Chain of caspase 3 (P42574 29-175): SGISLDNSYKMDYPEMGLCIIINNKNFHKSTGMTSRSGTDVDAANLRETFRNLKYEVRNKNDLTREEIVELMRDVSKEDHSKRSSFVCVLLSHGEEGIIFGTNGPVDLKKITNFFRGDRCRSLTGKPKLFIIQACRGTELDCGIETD
Chain of caspase 3 (P42574 176-277): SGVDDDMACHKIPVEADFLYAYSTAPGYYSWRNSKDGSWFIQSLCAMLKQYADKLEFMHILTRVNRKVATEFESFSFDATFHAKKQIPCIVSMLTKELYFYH
T2 sequence (P0C6X2 3335-3637 limits assumed): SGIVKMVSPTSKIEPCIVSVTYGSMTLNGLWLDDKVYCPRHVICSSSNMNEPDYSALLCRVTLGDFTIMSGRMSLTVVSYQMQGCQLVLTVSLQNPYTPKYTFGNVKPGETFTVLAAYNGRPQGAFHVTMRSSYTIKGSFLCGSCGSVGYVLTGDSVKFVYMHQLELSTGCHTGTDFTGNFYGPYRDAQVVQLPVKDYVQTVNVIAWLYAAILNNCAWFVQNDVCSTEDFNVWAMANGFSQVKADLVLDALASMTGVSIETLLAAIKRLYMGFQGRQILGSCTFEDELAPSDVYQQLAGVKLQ
Chain of cathepsin D (P07339 65-412): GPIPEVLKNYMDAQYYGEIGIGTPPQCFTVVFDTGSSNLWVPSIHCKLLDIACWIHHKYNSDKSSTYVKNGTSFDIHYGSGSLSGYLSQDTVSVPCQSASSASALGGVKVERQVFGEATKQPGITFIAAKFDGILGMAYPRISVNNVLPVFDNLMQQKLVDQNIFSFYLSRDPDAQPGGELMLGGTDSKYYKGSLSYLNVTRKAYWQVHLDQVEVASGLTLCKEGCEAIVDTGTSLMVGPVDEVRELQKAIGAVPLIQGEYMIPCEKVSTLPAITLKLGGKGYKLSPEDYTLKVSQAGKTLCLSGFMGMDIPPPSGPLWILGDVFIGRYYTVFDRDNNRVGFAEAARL
Chain of cathepsin L (P07711 114-333): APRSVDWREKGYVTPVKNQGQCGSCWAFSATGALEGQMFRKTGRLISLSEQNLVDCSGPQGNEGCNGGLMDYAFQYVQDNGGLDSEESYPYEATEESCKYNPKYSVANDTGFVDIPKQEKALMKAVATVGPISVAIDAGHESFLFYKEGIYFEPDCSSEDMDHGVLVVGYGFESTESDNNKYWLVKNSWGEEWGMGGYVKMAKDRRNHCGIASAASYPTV
Chain of calpain1 (P07384 whole entry): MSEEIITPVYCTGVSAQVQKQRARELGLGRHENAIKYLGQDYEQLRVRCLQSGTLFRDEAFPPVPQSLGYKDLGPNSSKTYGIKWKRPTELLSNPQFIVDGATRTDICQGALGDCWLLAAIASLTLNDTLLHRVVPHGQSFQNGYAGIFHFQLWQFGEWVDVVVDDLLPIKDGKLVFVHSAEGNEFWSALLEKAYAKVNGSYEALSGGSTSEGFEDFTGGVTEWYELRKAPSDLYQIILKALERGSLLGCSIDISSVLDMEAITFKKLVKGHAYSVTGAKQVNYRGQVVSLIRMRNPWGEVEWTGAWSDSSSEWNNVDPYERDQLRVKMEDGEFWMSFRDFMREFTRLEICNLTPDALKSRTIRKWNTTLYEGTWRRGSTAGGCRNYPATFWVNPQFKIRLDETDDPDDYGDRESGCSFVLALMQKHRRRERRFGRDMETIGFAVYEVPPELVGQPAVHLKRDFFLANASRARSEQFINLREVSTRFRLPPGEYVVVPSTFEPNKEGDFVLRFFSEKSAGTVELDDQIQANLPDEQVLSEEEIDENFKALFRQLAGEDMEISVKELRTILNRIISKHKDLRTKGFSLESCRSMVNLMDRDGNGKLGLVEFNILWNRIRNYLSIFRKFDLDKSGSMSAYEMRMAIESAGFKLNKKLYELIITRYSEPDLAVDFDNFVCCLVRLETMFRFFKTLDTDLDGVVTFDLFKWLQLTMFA
Chain of calpain1 (P04632 whole entry, further chain): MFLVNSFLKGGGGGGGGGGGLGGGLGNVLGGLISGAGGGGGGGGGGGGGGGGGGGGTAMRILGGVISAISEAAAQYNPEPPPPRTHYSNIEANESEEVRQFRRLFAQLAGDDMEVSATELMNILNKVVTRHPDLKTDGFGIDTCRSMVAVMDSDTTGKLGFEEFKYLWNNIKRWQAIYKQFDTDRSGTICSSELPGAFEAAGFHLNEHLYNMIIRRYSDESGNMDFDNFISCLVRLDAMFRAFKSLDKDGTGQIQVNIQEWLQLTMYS
Chain of caspase-2 (P42575 170-325): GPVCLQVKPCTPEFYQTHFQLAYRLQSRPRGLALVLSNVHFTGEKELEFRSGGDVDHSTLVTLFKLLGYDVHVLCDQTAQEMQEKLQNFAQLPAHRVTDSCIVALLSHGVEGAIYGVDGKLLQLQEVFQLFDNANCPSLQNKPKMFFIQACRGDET
Chain of caspase-2 (P42575 348-452): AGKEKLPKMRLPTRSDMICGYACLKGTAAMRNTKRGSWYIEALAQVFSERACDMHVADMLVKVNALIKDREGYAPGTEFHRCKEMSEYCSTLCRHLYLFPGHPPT
Chain of dipeptidyl peptidase IV (P27487 whole entry): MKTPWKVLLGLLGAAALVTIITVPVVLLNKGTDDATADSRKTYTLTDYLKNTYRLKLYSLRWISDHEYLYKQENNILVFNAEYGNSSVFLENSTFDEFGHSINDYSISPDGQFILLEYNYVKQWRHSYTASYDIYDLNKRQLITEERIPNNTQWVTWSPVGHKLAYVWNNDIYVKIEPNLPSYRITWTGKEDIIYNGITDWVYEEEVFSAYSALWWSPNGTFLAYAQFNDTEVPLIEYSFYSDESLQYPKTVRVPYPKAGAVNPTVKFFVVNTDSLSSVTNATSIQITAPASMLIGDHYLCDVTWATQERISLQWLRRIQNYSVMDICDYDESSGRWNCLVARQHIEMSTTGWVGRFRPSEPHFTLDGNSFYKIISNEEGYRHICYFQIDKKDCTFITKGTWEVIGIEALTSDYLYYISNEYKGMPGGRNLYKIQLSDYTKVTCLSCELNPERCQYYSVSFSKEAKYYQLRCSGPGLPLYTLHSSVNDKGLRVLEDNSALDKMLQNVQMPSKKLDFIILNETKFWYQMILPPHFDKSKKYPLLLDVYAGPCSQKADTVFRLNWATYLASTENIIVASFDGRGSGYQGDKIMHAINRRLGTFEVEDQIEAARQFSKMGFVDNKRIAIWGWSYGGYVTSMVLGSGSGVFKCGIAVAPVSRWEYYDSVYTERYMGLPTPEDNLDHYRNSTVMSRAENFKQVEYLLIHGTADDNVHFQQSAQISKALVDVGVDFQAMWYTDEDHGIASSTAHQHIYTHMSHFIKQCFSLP
Chain of cathepsin S (P25774 115-331): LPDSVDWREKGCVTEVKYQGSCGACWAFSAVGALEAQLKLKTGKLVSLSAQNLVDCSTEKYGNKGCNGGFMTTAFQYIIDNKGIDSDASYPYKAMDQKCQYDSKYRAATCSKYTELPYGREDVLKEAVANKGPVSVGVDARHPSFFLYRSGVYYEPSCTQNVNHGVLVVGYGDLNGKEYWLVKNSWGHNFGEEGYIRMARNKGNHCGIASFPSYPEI
T1 sequence (P0C6X6 3247-3549 limits assumed): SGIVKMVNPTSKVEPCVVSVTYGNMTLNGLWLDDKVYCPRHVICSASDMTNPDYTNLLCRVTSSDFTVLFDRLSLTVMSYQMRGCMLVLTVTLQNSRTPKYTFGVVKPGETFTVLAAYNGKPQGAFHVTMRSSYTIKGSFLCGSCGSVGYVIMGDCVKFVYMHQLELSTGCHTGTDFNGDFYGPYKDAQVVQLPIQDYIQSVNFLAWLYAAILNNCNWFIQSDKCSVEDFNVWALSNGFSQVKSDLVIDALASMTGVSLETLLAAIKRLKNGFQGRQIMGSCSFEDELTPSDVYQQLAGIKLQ

CC(C)C[C@@H](C(=O)N1C[C@]2(C[C@H]1C#N)C(=O)Nc1ccccc12)N(C)C(=O)c1cc2c(F)cc(F)c(F)c2[nH]1 [EDP-235]
effect on viral RNA decline or infectious viral load in nasal samples (SARS-CoV-2 [1]): failed to demonstrate the effect on viral RNA decline or infectious viral load in nasal samples

N#C[C@H](C[C@@H]1CCCNC1=O)NC(=O)[C@H](CC1CC1)NC(=O)c1cc2cccc(Cl)c2[nH]1 [pomotrelvir]
inhibitory activity (chymotrypsin C): no inhibitory activity was observed | primary endpoint: proportion of patients below the limit of detection by infectious virus assay on day 3 of treatment (SARS-CoV-2 [2]): did not meet the primary endpoint | EC50 [3, 8]: 256 nM | EC90 [3, 9]: 1270 nM | EC50 [4, 8]: 60 nM | EC90 [4, 9]: 171 nM | EC90 (SARS-CoV-2 BA.2 Omicron; [9]): 668 nM | EC50 (SARS-CoV-2 BA.2 Omicron; read-out: EC50 Mean (SD)): 139 nM | Ki (cathepsin L): 7400 nM | EC50 ([5]; Severe acute respiratory syndrome coronavirus 2, Huh-7, read-out: EC50 Mean (SD)): 31 nM | EC90 ([5]; Severe acute respiratory syndrome coronavirus 2, Huh-7, read-out: EC90 Mean (SD)): 170 nM | EC50 ([5]; read-out: Mean EC50 (SD)): 27 nM | EC90 ([5]; read-out: Mean EC90 (SD)): 150 nM | inhibitory activity (caspase 3): no inhibitory activity was observed | IC50 (CoV-OC43 M^pro): 158 nM | EC90 (SARS-CoV-2 WA1 NLuc; Severe acute respiratory syndrome coronavirus 2, A549-ACE2, read-out: Mean EC90 (SD)): 114 nM | EC50 (SARS-CoV-2 WA1 NLuc; read-out: Mean EC50 (SD)): 23 nM | inhibitory activity (thrombin): no inhibitory activity was observed | EC50 (SARS-CoV-2 AY.20 Delta; [8]): 374 nM | EC90 (SARS-CoV-2 AY.20 Delta; [9]): 672 nM | IC50 (CoV-HKU1 M^pro): 61 nM | EC50 (SARS-CoV-2 Alpha; [8]): 95 nM | EC90 (SARS-CoV-2 Alpha; [9]): 144 nM | Ki (cathepsin K): 289 nM | alpha factor (SARS-CoV-2 M^pro): 10.4 | inhibitory activity (calpain1): no inhibitory activity was observed | EC50 (CoV-OC43; Huh-7, read-out: Mean EC50 (SD)): 380 nM | EC90 (CoV-OC43; Huh-7, read-out: Mean EC90 (SD)): 490 nM | inhibitory activity (dipeptidyl peptidase IV): no inhibitory activity was observed | Ki (cathepsin S): 445 nM | EC50 (SARS-CoV-2 Epsilon; [8]): 195 nM | EC90 (SARS-CoV-2 Epsilon; [9]): 777 nM | EC50 (SARS-CoV-2 Delta; [8]): 251 nM | EC90 (SARS-CoV-2 Delta; [9]): 425 nM | inhibitory activity (caspase-2): no inhibitory activity was observed | EC50 [6, 8]: 94 nM | EC90 [6, 9]: 213 nM | Ki (cathepsin B): 1270 nM | IC50 (CoV-NL63 M^pro): 206 nM | EC50 (SARS-CoV-2 Mu; [8]): 73 nM | EC90 (SARS-CoV-2 Mu; [9]): 195 nM | IC50 (CoV-229E M^pro): 141 nM | EC50 [7, 8]: 244 nM | EC90 [7, 9]: 1120 nM | inhibitory activity (cathepsin D): no inhibitory activity was observed | EC90 (CoV-229E; MRC5, read-out: Mean EC90 (SD)): 410 nM | EC50 (CoV-229E; read-out: Mean EC50 (SD)): 180 nM | inhibitory activity (elastase): no inhibitory activity was observed

GC376
IC50 (SARS-CoV2 WT M^pro): 20 nM
